Measured values from patent publication US11827628B2, “Compositions and methods for inhibition of the JAK pathway” (Rigel Pharmaceuticals, Inc., priority 2005, dated 2023).
Structures can show the parent of a compound that is named as a salt. Where two headings read alike, the source gives them in different places.

Columns and labels:
[1] = test system: IL-4 stimulated expression of CD23 in human Ramos B cells (JAK-1 and JAK-3); assay: Assay for Ramos B-Cell Line Stimulated with IL-4 (CD23 upregulation, FACS); format: cell-based; conditions: read-out: IC50, Example 41
How it was run: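 Read-out: anti-CD23-PE flow cytometry on Ramos B cells, giving IC50. Cells (5×10^4 per point, RPMI + 5% serum) get compound or DMSO for 1 h at 37 °C, then IL-4 50 units/mL final for 20-24 h.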

[2] = test system: up-regulation of ICAM-1 (CD54) by IFNγ in U937 human monocytic cells; assay: U937 IFNγ ICAM1 FACS Assay; format: cell-based; conditions: ICAM-1 expression by FACS, read-out: IC50, Example 44
Description: The activity of the compounds of the invention may additionally be characterized by assaying the effect of the 2,4-substituted pyrimidinediamine compounds described herein on A549 lung epithelial cells and U937 cells. A549 lung epithelial cells and U937 cells up-regulate ICAM-1 (CD54) surface expression in response to a variety of different stimuli. Therefore, using ICAM-1 expression as readout, test compound effects on different signaling pathways can be assessed in the same cell type. Stimulation with IL-1β through the IL-1β receptor activates the TRAF6/NFκB pathway resulting in up-regulation of ICAM-1. IFNγ induces ICAM-1 up-regulation through activation of the JAK1/JAK2 pathway. The up-regulation of ICAM-1 can be quantified by flow cytometry across a compound dose curve and EC50, values are calculated.
U937 human monocytic cells up-regulate ICAM-1 (CD54) surface expression in response to a variety of different stimuli. Therefore, using ICAM-1 expression as readout, compound effects on different signaling pathways can be assessed in the same cell type. IFNγ up-regulates ICAM-1 through activation of the JAK/Stat pathway. In this example, the up-regulation of ICAM-1 by IFNγ was assessed.
The U937 human monocytic cell line was obtained from ATCC of Rockville Maryland, catalog number CRL-1593.2, and cultured in RPM1-1640 medium containing 10% (v/v) FCS. U937 cells were grown in 10% RPMI. The cells were then plated at a concentration of 100,000 cells per 160 μL in 96 well flat bottom plates. […] Then 4 μL of test compound was transferred to 76 μL of 10% RPMI resulting in a 10× solution (100 μM test compound, 5% DMSO). For control wells, 4 μL of DMSO was diluted into 76 μL 10% RPMI.
The assay was performed in duplicate with 8 points (8 3-fold dilution concentrations from […]) and with 4 wells of DMSO only (control wells) under stimulated conditions and 4 wells of DMSO only under unstimulated conditions.
The diluted compound plate was mixed 2× using a multimek (Beckman Coulter of Brea, California) and then 20 μL of the diluted compounds was transferred to the 96 well plate containing 160 μL of cells, which were then mixed again twice at low speeds. The cells and compounds were then pre-incubated for 30 minutes at 37° C. with 5% CO2.
The 10× stimulation mix was made by preparing a 100 ng/mL solution of human IFNγ in 10% RPMI. […] The cells were kept under conditions for stimulation for 18-24 hours at 37° C. with 5% CO2.
The cells were transferred to a 96 well round bottom plate for staining and then kept on ice for the duration of the staining procedure. Cells were spun down at 1000 rpm for 5 minutes at 4° C., following which the supernatant was removed. Following removal of the supernatant, 1 μL APC conjugated mouse anti-human ICAM-1 antibody was added per 100 μL FACS buffer. The cells were then incubated on ice in the dark for 30 minutes. Following incubation, […] of FACS buffer was added and the cells were centrifuged at 1000 rpm for 5 minutes at 4° C., following which the supernatant was removed. After removal of the supernatant, 200 μL of FACS buffer was added and the cells were resuspended. After suspension, the cells were centrifuged at 1000 rpm for 5 min at 4° C. Supernatant was then removed prior to resuspension of the cells in 150 μL FACS buffer.
Detection was performed using a BD LSR I System Flow Cytometer, purchased from BD Biosciences of San Jose, California The live cells were gated for live scatter and the geometric mean of ICAM-APC was measured (Becton-Dickinson CellQuest software version 3.3, Franklin Lakes, NJ). Both % live cells and ICAM-1 expression was analyzed. The assays for the test compounds were carried out in parallel with a control compound of known activity.

[3] = Ramos B-cell line stimulated with IL-4, CD23 expression by FACS
[4] = U937 cells stimulated with IFNγ
[5] = Homo sapiens, Ramos, Ramos B-cell line stimulated with IL-4, CD23 expression by FACS
[6] = Homo sapiens, U-937, U937 cells stimulated with IFNγ
[7] = Ramos B cells stimulated with IL-4, CD23 expression by FACS

| Compound | IC50 [1, 3] | IC50 [2, 4] | IC50 [2, 6] | other results |
| --- | --- | --- | --- | --- |
| CNS(=O)(=O)c1cc(Nc2ncc(F)c(Nc3ccc(OCc4ccccn4)cc3)n2)ccc1C [Compound I-161, 5-Fluoro-N2-[3-(N-methylaminosulfony)-4-methylphenyl]-5-fluoro-N4-[4-(2-pyridinyl)methyleneoxyphenyl]-2,4-pyrimidinediamine] | 314 nM | 2410 nM | – | – |
| Cc1ccc(Nc2ncc(F)c(Nc3ccc(OCC#N)c(-c4ccn(CC#N)n4)c3)n2)cc1S(N)(=O)=O [Compound I-54, N2-(3-Aminosulfonyl-4-methylphenyl]-N4-[4-cyanomethoxy-3-(1-cyanomethylpyrazol-3-yl)phenyl]-5-fluoro-2,4-pyrimidinediamine] | – | – | 7160 nM | IC50 [1, 5]: 277 nM |
| Cc1ccc(Nc2ncc(F)c(Nc3ccc(OCC#N)cc3)n2)cc1S(=O)(=O)NC(=O)C(C)C [Compound I-39, N4-(4-Cyanomethyleneoxy)phenyl-5-fluoro-N2-(3-isobutyrylaminosulfonyl-4-methyl)phenyl-2,4-pyrimidinediamine sodium Salt] | – | – | – | IC50 ([1]; Ramos B-cell line stimulated with IL-4, CD23 expression by FACS, sodium salt): 841 nM; IC50 ([2]; U937 cells stimulated with IFNγ, sodium Salt): 9320 nM |
| N#CCOc1ccc(Nc2nc(Nc3cccc(S(N)(=O)=O)c3)ncc2F)cc1-c1ccn(CC#N)n1 [Compound I-53, N2-(3-Aminosulfonylphenyl)-N4-[4-cyanomethoxy-3-(1-cyanomethylpyrazol-3-yl)phenyl]-5-fluoro-2,4-pyrimidinediamine] | – | – | 12200 nM | IC50 [1, 5]: 236 nM |
| CCC(=O)NS(=O)(=O)c1cccc(Nc2ncc(F)c(Nc3ccc(OCc4nc(C)no4)cc3)n2)c1 [Compound I-264] | 599 nM | 15000 nM | – | – |
| Cc1cc(COc2ccc(Nc3nc(Nc4cccc(S(=O)(=O)N(Cc5oc(=O)oc5C(C)(C)C)Cc5oc(=O)oc5C(C)(C)C)c4)ncc3F)cc2)no1 [Compound I-249, N2-{3-[N-N-Di-[(5-t-Butyl-1,3-dioxolene-2-one-4-yl)methylene]]aminosulfonylphenyl}-5-fluoro-N4-[4-(5-methylisoxazol-3-yl)methyleneoxyphenyl]-2,4-pyrimidinediamine] | 512 nM | 11000 nM | – | – |
| CNS(=O)(=O)c1cc(Nc2ncc(F)c(Nc3ccc(OCc4cc(C)on4)c(C)c3)n2)ccc1C [Compound I-239, 5-Fluoro-N2-[3-N-(methyl)aminosulfonyl-4-methylphenyl]-N4-[3-methyl-4-(5-methylisoxazol-3-yl)methyleneoxyphenyl]-2,4-pyrimidinediamine] | 240 nM | 7060 nM | – | – |
| Cc1ccc(Nc2ncc(F)c(Nc3ccc4c(c3)N(Cc3ccccn3)C(=O)CO4)n2)cc1S(N)(=O)=O [Compound V-3, N2-(3-Aminosulphonyl-4-methylphenyl)-5-fluoro-N4-[3-oxo-4-(2-pyridylmethy)-benz[1,4]oxazin-6-yl]-2,4-pyrimidinediamine] | – | 13700 nM | – | IC50 [1, 7]: 664 nM |
| N#CCOc1ccc(Nc2nc(Nc3cccc(S(N)(=O)=O)c3)ncc2F)cc1CO [Compound I-50, N2-(3-Aminosulfonylphenyl)-N4-(4-cyanomethoxy-3-hydroxymethylphenyl)-5-fluoro-2,4-pyrimidinediamine] | – | – | 25100 nM | IC50 [1, 5]: 373 nM |

Second part, led by results:

| IC50 [1, 3] | IC50 [2, 4] | IC50 [2, 6] | Compound | other results |
| --- | --- | --- | --- | --- |
| – | 345 nM | – | NC(=O)NCc1cccc(Nc2nc(Nc3ccc(S(N)(=O)=O)cc3)ncc2F)c1 [III-113, N4-(3-aminocarbonylaminomethyl)phenyl-N2-(4-aminosulfonyl)phenyl-5-fluoro-2,4-pyrimidinediamine] | IC50 [1, 7]: 1030 nM |
| – | – | 9270 nM | Cc1c(Cl)cc(Nc2ncc(F)c(Nc3ccc(OC(F)(F)F)c(Cl)c3)n2)cc1S(N)(=O)=O [VI-14, N2-(3-Aminosulfonyl-5-chloro-4-methylphenyl)-N4-(3-chloro-4-trifluoromethoxyphenyl)-5-fluoro-2,4-pyrimidinediamine] | IC50 ([1]; Homo sapiens, Ramos, Ramos B cells stimulated with IL-4, CD23 expression by FACS): 413 nM |
| 347 nM | 3050 nM | – | CCN(CC)CCNS(=O)(=O)c1ccc(Nc2ncc(F)c(Nc3ccc(Cc4ccncc4)cc3)n2)cc1 [III-67, N2-[4-(2-N,N-Diethylaminoethyl)aminosulfonylphenyl)-5-fluoro-N4-[4-(4-pyridinylmethyl)phenyl]-2,4-pyrimidinediamine] | – |
| 300 nM | 834 nM | – | CCC(=O)NCc1ccc(Nc2nc(Nc3ccc(C)c(S(N)(=O)=O)c3)ncc2F)cc1 [III-37, N2-(3-aminosulfonyl-4-methyl)phenyl-N4-(4-ethylcarbonylaminomethyl)phenyl-5-fluoro-2,4-pyrimidinediamine] | – |
